Experimental data reported in patent publication US9974825B2, “Peptides Des-[Asp1]-[Ala1], angiotensin-(1-7) agonist and pharmaceutical compositions for the treatment of diseases” (UNIVERSIDADE FEDERAL DE MINAS GERAIS, priority 2008, dated 2018).

What was measured:
[1] = molecular target: Mas receptor; details: Dong et al., Cell 2001; read-out: EC50, affinity with Mas receptor; cited from earlier work
[2] = test system: wild-type mice; details: Jankowski et al. 2007; cited from earlier work
[3] = molecular target: T1, AT2 receptor (Homo sapiens, UniProt P50052); details: Jankowski et al. 2007; cited from earlier work
T1 sequence (P50052 1-363): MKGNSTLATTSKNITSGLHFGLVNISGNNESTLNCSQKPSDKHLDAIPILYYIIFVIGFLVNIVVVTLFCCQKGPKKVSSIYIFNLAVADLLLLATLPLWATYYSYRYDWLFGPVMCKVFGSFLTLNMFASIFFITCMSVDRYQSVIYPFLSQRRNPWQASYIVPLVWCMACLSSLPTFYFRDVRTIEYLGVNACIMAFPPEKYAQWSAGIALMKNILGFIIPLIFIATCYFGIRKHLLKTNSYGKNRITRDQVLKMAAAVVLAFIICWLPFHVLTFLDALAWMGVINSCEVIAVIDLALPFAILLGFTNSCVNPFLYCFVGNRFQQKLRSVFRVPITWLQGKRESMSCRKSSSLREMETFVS

[4] = molecular target: T2, AT1 receptor (Homo sapiens, UniProt P30556); details: Jankowski et al. 2007; cited from earlier work
T2 sequence (P30556 1-359): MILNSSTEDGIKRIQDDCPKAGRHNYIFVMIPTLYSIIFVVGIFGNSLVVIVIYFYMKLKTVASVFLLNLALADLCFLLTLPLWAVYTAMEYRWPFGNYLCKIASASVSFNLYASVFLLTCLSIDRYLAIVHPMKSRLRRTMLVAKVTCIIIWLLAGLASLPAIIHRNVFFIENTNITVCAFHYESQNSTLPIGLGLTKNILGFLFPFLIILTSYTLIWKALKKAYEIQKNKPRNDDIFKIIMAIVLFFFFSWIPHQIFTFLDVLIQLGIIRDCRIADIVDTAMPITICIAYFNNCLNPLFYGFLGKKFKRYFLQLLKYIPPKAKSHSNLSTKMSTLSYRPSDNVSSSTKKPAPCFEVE

[5] = molecular target: T3, angiotensin converter enzyme (ACE) (Rattus norvegicus, UniProt P47820); assay: Plasmatic ACE activity, fluorimetric method with Hip-His-Leu substrate; assay type: biochemical, Wistar rats; details: 5 mM enalaprilate, assay specificity control
T3 construct: from tissue; host or cells: plasma of Wistar rats
T3 sequence (P47820 36-1238 limits assumed): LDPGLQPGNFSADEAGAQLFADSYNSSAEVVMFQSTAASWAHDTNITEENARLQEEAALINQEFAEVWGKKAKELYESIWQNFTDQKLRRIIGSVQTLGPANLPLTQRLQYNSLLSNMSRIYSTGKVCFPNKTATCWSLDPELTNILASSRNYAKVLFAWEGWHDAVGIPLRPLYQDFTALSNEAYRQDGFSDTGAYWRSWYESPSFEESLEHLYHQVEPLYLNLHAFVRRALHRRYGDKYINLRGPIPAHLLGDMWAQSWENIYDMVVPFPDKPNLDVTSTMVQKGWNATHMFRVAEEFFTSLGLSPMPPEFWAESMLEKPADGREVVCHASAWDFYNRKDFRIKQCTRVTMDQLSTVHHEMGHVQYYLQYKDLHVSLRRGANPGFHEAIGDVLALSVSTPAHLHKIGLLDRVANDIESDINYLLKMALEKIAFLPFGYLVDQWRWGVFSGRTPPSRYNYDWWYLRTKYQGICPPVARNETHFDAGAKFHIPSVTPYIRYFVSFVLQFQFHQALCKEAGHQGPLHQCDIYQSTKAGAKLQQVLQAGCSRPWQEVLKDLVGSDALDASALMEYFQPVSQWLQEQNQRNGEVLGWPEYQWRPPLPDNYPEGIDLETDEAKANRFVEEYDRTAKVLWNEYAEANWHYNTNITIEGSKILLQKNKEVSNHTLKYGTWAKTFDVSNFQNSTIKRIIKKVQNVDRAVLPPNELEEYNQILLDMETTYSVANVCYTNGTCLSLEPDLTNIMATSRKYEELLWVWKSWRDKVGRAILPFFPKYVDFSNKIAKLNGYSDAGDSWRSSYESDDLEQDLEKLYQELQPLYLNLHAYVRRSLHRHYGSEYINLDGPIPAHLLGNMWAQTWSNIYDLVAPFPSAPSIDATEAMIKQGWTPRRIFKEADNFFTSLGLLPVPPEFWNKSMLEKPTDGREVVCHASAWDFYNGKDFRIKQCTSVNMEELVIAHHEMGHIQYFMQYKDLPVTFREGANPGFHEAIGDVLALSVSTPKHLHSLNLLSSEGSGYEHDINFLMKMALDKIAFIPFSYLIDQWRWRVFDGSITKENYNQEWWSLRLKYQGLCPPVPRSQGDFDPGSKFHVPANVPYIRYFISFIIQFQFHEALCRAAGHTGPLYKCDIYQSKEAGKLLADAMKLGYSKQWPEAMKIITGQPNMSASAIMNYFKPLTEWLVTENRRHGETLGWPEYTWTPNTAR
Experimental: The plasmatic activity of ACE was measured by the fluorimetric method using Hip-His-Leu as substrate, as previously described (Santos, R. A. S. et al., Hypertension, 7:244-52, (1985)). Plasma aliquots (10 μL) of Wistar rats were incubated with a […] solution containing a 1 mM substrate (Hip-His-Leu) and 0.4 M of sodium borate, 0.9 M NaCl (pH=8.3) for 15 minutes at 37° C. The reaction was halted by adding 1.2 mL of NaOH at 0.34 M and […] of orthoftaldehyde (20 mg/mL in methanol). After 10 minutes at environment temperature, […] of HCl at 3 N was added. Later on, after a 5-minute 800×g centrifugation, the floating solution fluorescence was measured (a 365 nm excitation and a 495 nm emission). The blank was prepared by inverting the addition order of plasma and NaOH. A 0.5 to 20 nmol curve, containing the product (His-Leu) resulting of the substrate break (Hip-His-Leu) by ACE plasmatic activity, was prepared in each assay. In order to test the inhibition effect of ACE by the PEPTIDEs Ang-(1-7) and Ala^1-Ang-(1-7), 3.3×10^−7 or 3.3×10^−6 M of each PEPTIDE was added before the plasma addition. […] The percentage of enzymatic activity inhibition was estimated in function of the maximum activity obtained.

In the case of “NPFF: one PEPTIDE called NPFF, which had shown affinity with the Mas receptor, though reasonably feeble”, the EC50 [1] is given as ~400 nM.

In the case of “Ala^1-Arg^2-Val^3-Tyr^4-Ile^5-His^6-Pro^7-Phe^8 (ARVYIHPF; Angiotensin-2; UniProt P01019 25-32, looked up, variant D1A) [Ala^1-Ang II]”, the “pressor activity compared with Ang II” value [2] is given as “only a fraction of the Ang II activity”, the “affinity with AT2 receptor compared with Ang II” value [3] is given as “does not substantially differ from Ang II” and the “affinity with AT1 receptor compared with Ang II” value [4] is given as “does not substantially differ from Ang II”.

In the case of `C[C@H](N[C@@H](CCc1ccccc1)C(=O)O)C(=O)N1CCC[C@H]1C(=O)O` [enalaprilate], the “inhibition of the ACE activity” value [5] is reported as 98%.
